Reference: patent US10407467B2, “Polymyxin derivatives and their use in combination therapy together with different antibiotics” (priority 2013, dated 2019)
Read-outs that look alike come from different tables or passages of the source. Marks after values point to notes of the source that are not given here.

Tests used:
Acinetobacter baumannii [1] = assay: MIC, compound in combination with a second agent (broth microdilution); type: cell-based
Procedure, shortened: (§1)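 Read-out is the total-drug MIC of a 1:1 weight ratio combination with another agent, e.g. rifampicin. Duplicates within 2-fold gave the lower value; wider spread meant a non-valid assay. Where compounds were tested multiple times, the mode is given.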

Escherichia coli [2] = assay: as above; type: cell-based
Procedure, shortened: as §1

Klebsiella pneumoniae [3] = assay: as above; type: cell-based; conditions: for MIC K. pneumoniae ATCC 4352 / MIC K. pneumoniae CCUG 59349: total drug concentration
Procedure, shortened: as §1

Pseudomonas aeruginosa [4] = assay: as above; type: cell-based; conditions: for MIC P. aeruginosa ATCC 10145: total drug concentration
Procedure, shortened: as §1

Acinetobacter baumannii [5] = assay: MIC, sole activity (no second agent); type: cell-based
Procedure, shortened: (§2)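 Up to four strains per species were tested in cation-adjusted Mueller-Hinton broth, with inoculum made by direct colony suspension from 18-24 hour Mueller-Hinton agar plates, adjusted to 0.5 McFarland. Duplicates differing by under 2-fold gave the lower value; greater spread voided the run. Values are relative to Polymyxin B.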

Escherichia coli [6] = assay: MIC, sole activity (no second agent); type: cell-based
Procedure, shortened: as §2

Klebsiella pneumoniae [7] = assay: MIC, sole activity (no second agent); type: cell-based
Procedure, shortened: as §2

Pseudomonas aeruginosa [8] = assay: MIC, sole activity (no second agent); type: cell-based
Procedure, shortened: as §2

HK-2 cell line = assay: In vitro renal cell toxicity assay (resazurin reduction); type: cell-based, human; conditions: HK-2 cells, 24 h, resazurin reduction; mean values of up to 6 independent studies
[9] = tested on: Escherichia coli isolate ATCC25922; conditions: subcutaneous BID
[10] = 1:1 combination with Aztreonam, total drug concentration
[11] = Table 6A, no second agent, different supplier of Cation-adjusted MHB

Substance: Polymyxin B [reference compound]
- MIC A. baumannii ATCC BAA-747 (Acinetobacter baumannii [1]; 1:1 (wt:wt) combination with Rifampicin, MIC = total drug concentration, strain ATCC BAA-747): 0.125 micrograms/mL
- MIC A. baumannii CCUG57249 (Acinetobacter baumannii [1]; 1:1 (wt:wt) combination with Rifampicin, MIC = total drug concentration, strain CCUG57249): 0.25 micrograms/mL
- MIC A. baumannii NCTC 13423 (Acinetobacter baumannii [1]; 1:1 (wt:wt) combination with Rifampicin, MIC = total drug concentration, strain NCTC 13423): 0.125 micrograms/mL
- MIC A. baumannii NCTC 13424 (Acinetobacter baumannii [1]; 1:1 (wt:wt) combination with Rifampicin, MIC = total drug concentration, strain NCTC 13424): 0.5 micrograms/mL
- MIC A. baumannii NCTC 13424 (Acinetobacter baumannii [1]; [10]): 1 micrograms/mL
- MIC A. baumannii NCTC 13424 (Acinetobacter baumannii [1]; A. baumannii NCTC 13424, 1:1 combination with Azithromycin, total drug concentration): 1 micrograms/mL
- MIC A. baumannii NCTC 13424 (Acinetobacter baumannii [1]; A. baumannii NCTC 13424, 1:1 combination with Novobiocin, total drug concentration): 0.125 micrograms/mL
- MIC E. coli ATCC25922 (Escherichia coli [2]; 1:1 (wt:wt) combination with Rifampicin, MIC = total drug concentration, strain ATCC25922): 0.25 micrograms/mL
- MIC E. coli NCTC9001 (Escherichia coli [2]; 1:1 (wt:wt) combination with Rifampicin, MIC = total drug concentration, strain NCTC9001): 0.5 micrograms/mL
- MIC E. coli ATCC25922 (Escherichia coli [2]; [10]): 0.125 micrograms/mL
- MIC E. coli NCTC 13441 (Escherichia coli [2]; [10]): 1 micrograms/mL
- MIC E. coli ATCC25922 (Escherichia coli [2]; E. coli ATCC25922, 1:1 combination with Azithromycin, total drug concentration): 0.25 micrograms/mL
- MIC E. coli ATCC25922 (Escherichia coli [2]; E. coli ATCC25922, 1:1 combination with Fusidic acid, total drug concentration): 2 micrograms/mL
- MIC E. coli ATCC25922 (Escherichia coli [2]; E. coli ATCC25922, 1:1 combination with Novobiocin, total drug concentration): 0.5 micrograms/mL
- MIC E. coli ATCC25922 (Escherichia coli [2]; E. coli ATCC25922, 1:1 combination with Oxacillin, total drug concentration): 2 micrograms/mL
- MIC E. coli NCTC 13441 (Escherichia coli [2]; E. coli NCTC 13441, 1:1 combination with Azithromycin, total drug concentration): 1 micrograms/mL
- MIC E. coli NCTC 13441 (Escherichia coli [2]; E. coli NCTC 13441, 1:1 combination with Novobiocin, total drug concentration): 1 micrograms/mL
- MIC K. pneumoniae ATCC-BAA-2146 (Klebsiella pneumoniae [3]; 1:1 (wt:wt) combination with Rifampicin, MIC = total drug concentration, strain ATCC-BAA-2146): 1 micrograms/mL
- MIC K. pneumoniae CCUG-59348 (Klebsiella pneumoniae [3]; 1:1 (wt:wt) combination with Rifampicin, MIC = total drug concentration, strain CCUG-59348): 1 micrograms/mL
- MIC K. pneumoniae NCTC 13438 (Klebsiella pneumoniae [3]; 1:1 (wt:wt) combination with Rifampicin, MIC = total drug concentration, strain NCTC 13438): 1 micrograms/mL
- MIC K. pneumoniae ATCC 4352 (Klebsiella pneumoniae [3]; 1:1 combination with Aztreonam): ≤0.06 micrograms/mL
- MIC K. pneumoniae CCUG 59349 (Klebsiella pneumoniae [3]; 1:1 combination with Aztreonam): 2 micrograms/mL
- MIC K. pneumoniae ATCC 4352 (Klebsiella pneumoniae [3]; K. pneumoniae ATCC4352, 1:1 combination with Azithromycin): 0.25 micrograms/mL
- MIC K. pneumoniae ATCC 4352 (Klebsiella pneumoniae [3]; K. pneumoniae ATCC4352, 1:1 combination with Fusidic acid): 1 micrograms/mL
- MIC K. pneumoniae ATCC 4352 (Klebsiella pneumoniae [3]; K. pneumoniae ATCC4352, 1:1 combination with Novobiocin): 0.25 micrograms/mL
- MIC K. pneumoniae ATCC 4352 (Klebsiella pneumoniae [3]; K. pneumoniae ATCC4352, 1:1 combination with Oxacillin): 4 micrograms/mL
- MIC K. pneumoniae CCUG 59349 (Klebsiella pneumoniae [3]; K. pneumoniae CCUG 59349, 1:1 combination with Azithromycin): 2 micrograms/mL
- MIC K. pneumoniae CCUG 59349 (Klebsiella pneumoniae [3]; K. pneumoniae CCUG 59349, 1:1 combination with Novobiocin): 1 micrograms/mL
- MIC P. aeruginosa ATCC 27853 (Pseudomonas aeruginosa [4]; 1:1 (wt:wt) combination with Rifampicin, MIC = total drug concentration, strain ATCC 27853): 0.5 micrograms/mL
- MIC P. aeruginosa ATCC CRM-9027 (Pseudomonas aeruginosa [4]; 1:1 (wt:wt) combination with Rifampicin, MIC = total drug concentration, strain ATCC CRM-9027): 0.25 micrograms/mL
- MIC P. aeruginosa ATCC-47 (Pseudomonas aeruginosa [4]; 1:1 (wt:wt) combination with Rifampicin, MIC = total drug concentration, strain ATCC-47): 0.5 micrograms/mL
- MIC P. aeruginosa CCUG 59626 (Pseudomonas aeruginosa [4]; 1:1 (wt:wt) combination with Rifampicin, MIC = total drug concentration, strain CCUG 59626): 0.5 micrograms/mL
- MIC P. aeruginosa ATCC 10145 (Pseudomonas aeruginosa [4]; 1:1 combination with Aztreonam): 1 micrograms/mL
- MIC P. aeruginosa ATCC 10145 (Pseudomonas aeruginosa [4]; P. aeruginosa ATCC 10145, 1:1 combination with Azithromycin): 1 micrograms/mL
- MIC P. aeruginosa ATCC 10145 (Pseudomonas aeruginosa [4]; P. aeruginosa ATCC 10145, 1:1 combination with Novobiocin): 1 micrograms/mL
- MIC A. baumannii NCTC 13424 (Acinetobacter baumannii [5]; Second Agent none (Table 7E)): 0.125 micrograms/mL
- MIC A. baumannii ATCC BAA-747 (Acinetobacter baumannii [5]; [11]): 0.25 micrograms/mL
- MIC A. baumannii NCTC 13424 (Acinetobacter baumannii [5]; [11]): 0.5 micrograms/mL
- MIC A. baumannii NCTC 13424 (Acinetobacter baumannii [5]; Table 7F, A. baumannii NCTC 13424, second agent none): 0.125 micrograms/mL
- MIC A. baumannii NCTC 13424 (Acinetobacter baumannii [5]; Table 7H, A. baumannii NCTC 13424, second agent none): 0.125 micrograms/mL
- MIC A. baumannii ATCC13424 (Acinetobacter baumannii [5]; in the absence of Rifampicin, strain ATCC13424): 1 micrograms/mL
- MIC A. baumannii ATCCBAA-747 (Acinetobacter baumannii [5]; in the absence of Rifampicin, strain ATCCBAA-747): 0.5 micrograms/mL
- MIC A. baumannii CCUG57249 (Acinetobacter baumannii [5]; in the absence of Rifampicin, strain CCUG 57249): 1 micrograms/mL
- MIC A. baumannii NCTC 13423 (Acinetobacter baumannii [5]; in the absence of Rifampicin, strain NCTC13423): 0.5 micrograms/mL
- MIC E. coli ATCC25922 (Escherichia coli [6]; Second Agent none (Table 7E)): 0.5 micrograms/mL
- MIC E. coli NCTC 13441 (Escherichia coli [6]; Second Agent none (Table 7E)): 1 micrograms/mL
- MIC E. coli ATCC25922 (Escherichia coli [6]; [11]): 0.25 micrograms/mL
- MIC E. coli NCTC 13441 (Escherichia coli [6]; [11]): 0.25 micrograms/mL
- MIC E. coli ATCC25922 (Escherichia coli [6]; Table 7F, E. coli ATCC25922, second agent none): 0.5 micrograms/mL
- MIC E. coli NCTC 13441 (Escherichia coli [6]; Table 7F, E. coli NCTC 13441, second agent none): 1 micrograms/mL
- MIC E. coli ATCC25922 (Escherichia coli [6]; Table 7G, E. coli ATCC25922, second agent none): 0.5 micrograms/mL
- MIC E. coli ATCC25922 (Escherichia coli [6]; Table 7H, E. coli ATCC25922, second agent none): 0.5 micrograms/mL
- MIC E. coli NCTC 13441 (Escherichia coli [6]; Table 7H, E. coli NCTC 13441, second agent none): 1 micrograms/mL
- MIC E. coli ATCC25922 (Escherichia coli [6]; Table 7I, E. coli ATCC25922, second agent none): 0.5 micrograms/mL
- MIC E. coli ATCC25922 (Escherichia coli [6]; in the absence of Rifampicin, strain ATCC25922): 1 micrograms/mL
- MIC E. coli NCTC9001 (Escherichia coli [6]; in the absence of Rifampicin, strain NCTC9001): 1 micrograms/mL
- MIC K. pneumoniae CCUG 59349 (Klebsiella pneumoniae [7]; Second Agent none (Table 7E)): 0.5 micrograms/mL
- MIC K. pneumoniae ATCC 4352 (Klebsiella pneumoniae [7]; [11]): 0.25 micrograms/mL
- MIC K. pneumoniae ATCC BAA-2146 (Klebsiella pneumoniae [7]; [11]): 0.5 micrograms/mL
- MIC K. pneumoniae CCUG 59349 (Klebsiella pneumoniae [7]; Table 7F, K. pneumoniae CCUG 59349, second agent none): 0.5 micrograms/mL
- MIC K. pneumoniae CCUG 59349 (Klebsiella pneumoniae [7]; Table 7H, K. pneumoniae CCUG 59349, second agent none): 0.5 micrograms/mL
- MIC K. pneumoniae ATCC 4352 (Klebsiella pneumoniae [7]; in the absence of Rifampicin, strain ATCC 4352): 1 micrograms/mL
- MIC K. pneumoniae ATCC-BAA2146 (Klebsiella pneumoniae [7]; in the absence of Rifampicin, strain ATCC-BAA2146): 2 micrograms/mL
- MIC K. pneumoniae CCUG-59348 (Klebsiella pneumoniae [7]; in the absence of Rifampicin, strain CCUG-59348): 16 micrograms/mL
- MIC K. pneumoniae NCTC-13438 (Klebsiella pneumoniae [7]; in the absence of Rifampicin, strain NCTC-13438): 1 micrograms/mL
- MIC P. aeruginosa ATCC 10145 (Pseudomonas aeruginosa [8]; Second Agent none (Table 7E)): 0.5 micrograms/mL
- MIC P. aeruginosa ATCC 27853 (Pseudomonas aeruginosa [8]; [11]): 0.5 micrograms/mL
- MIC P. aeruginosa CCUG 59347 (Pseudomonas aeruginosa [8]; [11]): 0.5 micrograms/mL
- MIC P. aeruginosa ATCC 10145 (Pseudomonas aeruginosa [8]; Table 7F, P. aeruginosa ATCC 10145, second agent none): 0.5 micrograms/mL
- MIC P. aeruginosa ATCC 10145 (Pseudomonas aeruginosa [8]; Table 7H, P. aeruginosa ATCC 10145, second agent none): 0.5 micrograms/mL
- MIC P. aeruginosa ATCC 27853 (Pseudomonas aeruginosa [8]; in the absence of Rifampicin, strain ATCC27853): 0.5 micrograms/mL
- MIC P. aeruginosa ATCC-47 (Pseudomonas aeruginosa [8]; in the absence of Rifampicin, strain ATCC-47): 2 micrograms/mL
- MIC P. aeruginosa ATCCCRM-9027 (Pseudomonas aeruginosa [8]; in the absence of Rifampicin, strain ATCCCRM-9027): 0.25 micrograms/mL
- MIC P. aeruginosa CCUG 59626 (Pseudomonas aeruginosa [8]; in the absence of Rifampicin, strain CCUG 59626): 0.5 micrograms/mL
- IC50 HK-2 cells (HK-2 cell line): 11^b μg/mL
- Mean log10 CFU reduction vs. control ([9]; Table 11, total daily dosage 3 mg/kg (sulfate salt), 24 h post-infection): 2.5 ^a log10 CFU
- Mean log10 CFU reduction vs. control ([9]; Table 11, total daily dosage 10 mg/kg (sulfate salt), 24 h post-infection): 4.2 ^a log10 CFU
- Mean log10 CFU reduction vs. control ([9]; Table 11A, separate study, total daily dosage 3 mg/kg (sulfate salt)): 3.75 log10 CFU
- Mean log10 CFU reduction vs. control ([9]; Table 11A, separate study, total daily dosage 10 mg/kg (sulfate salt)): 4.87 log10 CFU
